The values that follow come from US6350476B1, “Herbal chinese joint complex” (Shanxi Zhengzhon Pharmaceutical Co., Ltd., priority 2000, dated 2002).

Data set [1] has as its system fever caused by yeast injection. Put plainly: Animal Study 7: anti-pyretic action on pyrexial rat caused by injection of fresh yeast. It counts as in vivo. The conditions noted are these: rats, 0.15 g/kg gastrogavage. The procedure:
(§1) The compositions used in these experiments were prepared by the Pharmaceutical Preparation Room of Taiyuan Rheumatoid Arthritis Hospital using the procedures outlined above. Distilled water was added to prepare a suspension of the density required for the tests.
(§2) Aspirin (99.6%) was manufactured by Nanjing Pharmacy. A 10% of gum acacia solution was added to prepare a suspension of the density required for the test.
(§3) Distilled water was used for the control groups.
This test was conducted according to the procedure established by Chen Qi, The People's Public Health House, 271 (1993).
The rats were randomly divided into 4 groups, each group weighing 210.0±10.9 g and consisting of 5 male and 5 female rats each. Rats were maintained in the test environmental conditions for 3 days during which their anal temperatures were recorded twice daily. On the fourth day the anal temperature was measured every half hour. Next, a 15% solution of fresh yeast suspension (2 ml/100 g) was injected into the back of each rat. Anal temperature was measured 4 hours later. The rats whose temperatures rose above 1° C. were divided into 4 groups, each group consisting of 10 rats. Each group of rats was fed either water (control), aspirin (0.15 g/kg of body weight), or the composition disclosed in U.S. Pat. No. 5,908,628 (either 1.5 g or 3.0 g/kg of body weight) by means of gastrogavage. Anal temperatures were determined 1, 2, 3 and 4 hours after the gastrogavage.

The test system of data set [2] is inflammation of primary arthritis caused by injection of Freund's complete adjuvant (rat hind paw). The data set can be described thus: Animal Study 1: primary arthritis caused by Freund's complete adjuvant, treatment before injection. In kind it is in vivo. The conditions noted are these: rats, 0.15 g/kg gastrogavage once a day for 3 days. How it is done:
as §1, §2, §3
Male rats were randomly divided into four groups of ten rats each, with the total weight of each group being 172.5±8.0 g. The perimeters of the rat hind paws were measured. Each group of rats was fed either water (control), aspirin (0.15 g/kg of body weight), or the composition disclosed in U.S. Pat. No. 5,908,628 (either 1.5 g or 3.0 g/kg of body weight) by means of gastrogavage, once a day for 3 days. On the third day, 1 hour after the gastrogavage, 0.1 ml of Freund's complete adjuvant was intradermally injected into each rat's right hind paw to induce inflammation. The perimeters of the left and right hind paws were measured 2, 4, 6, 24, 48 and 72 hours after inflammation.

For data set [3] the test system is unchanged. The data set can be described thus: Animal Study 2: primary arthritis caused by Freund's complete adjuvant, treatment one week after injection. It counts as in vivo. The settings on record: rats. How it is done:
as §1, §2, §3
Male rats were randomly divided into four groups of ten rats each, with the total weight of each group being 172.5±8.0 g. The perimeters of the left and right rat hind paws were measured. 0.1 ml of Freund's complete adjuvant was intradermally injected into each rat's right hind paw to induce inflammation. One week after injection of Freund's complete adjuvant, each group of rats was fed either water (control), aspirin (0.15 g/kg of body weight), or the composition disclosed in U.S. Pat. No. 5,908,628 (either 1.5 g or 3.0 g/kg of body weight) by means of gastrogavage. The hind paws were observed and measured 1, 4 and 7 days after receiving treatments of either water, aspirin or the composition disclosed in U.S. Pat. No. 5,908,628. Results of the treatments were determined by measuring the degree of swelling of the injected versus non-injected hind paws, changes in body weight, the number of tubercles, and an overall visual score of the difference between the injected and non-injected paws. The visual score included observations on erythema of the ears and the swelling of the hind paws, ankle joints, and paw joints.

The subject of data set [4] is hyperplasia of connective tissues (granulomatosis). The data set can be described thus: Animal Study 6: granulomatosis induced by Cotton Pallet Method. It counts as in vivo. The conditions noted are these: rats; 0.1 g/kg gastrogavage once daily for 8 days. How it is done: as §1, §2, §3
This test was conducted according to the procedure established by the Medication Dept. of the Public Health Ministry (Collection of Guiding Principles on Western Medicine's Pre-Clinical Research, 271 (1993)). Rats were randomly assigned to one of 4 groups, each group consisting of 8 rats with a total weight 157.8±9.0 g. The rats in each group were anesthetized, tiny incisions were cut on the left and right groins, and 10 mg of sterilized cotton was placed inside each cut. […] On the day following the last gastrogavage, the cotton and any granuloma deposits thereon were removed from the incisions, dried at a temperature of 60° C. for 12 hours, after which they were individually weighed. The weight of the granuloma deposits was calculated by subtracting […] (i.e., 10 mg). […] The Inhibitory Ratio is calculated as follows: […]

The subject of data set [5] is carrageenin-induced edematous footpad in mice. The data set can be described thus: Animal Study 3: carrageenin-induced edematous footpad. It counts as in vivo. The conditions noted are these: 0.15 g/kg gastrogavage once a day for 8 days. The procedure: as §1, §2, §3
This test was conducted according to the procedure established by Xu-Shu-Yun, Methodology of the Pharmacologic Experiments, The People's Public Health Publishing House, 717 (1991). Male mice were randomly assigned to one of four groups of ten mice each, each group weighing 22.5±2.1 g. Each group of mice was fed either water (control), aspirin (0.15 g/kg of body weight), or the composition disclosed in U.S. Pat. No. 5,908,628 (either 1.5 g or 3.0 g/kg of body weight) by means of gastrogavage, once a day for 8 days. On the eighth day, 1 hour after the gastrogavage, 0.1 ml of a 1.0% carrageenin solution was hypodermically injected into the right ankle joint. Using a volumometer, the volumes of the paw and ankle joints were measured 0.5, 1, 2, 3 and 4 hours after inflammation and the values were used to calculate a swelling value.

For data set [6], the system named is writhing caused by injection of 0.5% acetic acid. The data set can be described thus: Animal Study 8: writhing reaction caused by injection of 0.5% acetic acid. In kind it is in vivo. The settings on record: mice, 0.2 g/kg gastrogavage. The procedure: as §1, §2, §3
This test measures the analgesic action of the composition disclosed in U.S. Pat. No. 5,908,628 on writhing caused by injection of 0.5% acetic acid according to the procedure established by Chen Qi. Methodology of Chinese Herbs Pharmacologic Research, The People's Public Health Publishing House, 378 (1993).
The mice are randomly divided into 4 groups, each of which consists of 10 male and 10 female mice, with the total weight of each group being 20.9±1.1 g. […] Pat. No. […] One hour after the gastrogavage, a solution of (I.P.) 0.5% acetic acid (0.2 ml/20 g) was injected into the mice. The number of writhing reactions was counted during the 30 minutes immediately following the injection.

In data set [7] the test system is increased capillary permeability induced by I.P. 0.7 acetic acid in mice. The data set can be described thus: Animal Study 5: capillary permeability induced by glacial acetic acid. In kind it is in vivo. The settings on record: 0.15 g/kg gastrogavage, 20 minutes after injection. How it is done: as §1, §2, §3
This test was conducted according to the procedure established by Chen Qi, The People's Public Health House, 303 (1993). Mice were randomly assigned to one of 4 groups, each group having a total weight of 21.8±1.9 g and consisting of 5 male and 5 female mice each. Each group of mice was fed either water (control), aspirin (0.15 g/kg of body weight), or the composition disclosed in U.S. Pat. No. 5,908,628 (either 1.5 g or 3.0 g/kg of body weight) by means of gastrogavage. One hour after the gastrogavage, a solution consisting of 0.5% Evans blue and (I.P.) 0.7% glacial acetic acid 0.1 m/10 g (body weight) was hypodermically injected into the mice. I.P. densitometry values were collected 20 minutes after the injection.

The conditions of data set [8]: as little as; cited from earlier work.

SMILES strings stand for the structures.

`CC(=O)Oc1ccccc1C(=O)O` [Aspirin, acetylsalicylic acid]: the “Changes in Body Temperature after injection with yeast, 1 hr” value in data set [1] (1 hr after the gastrogavage) is 37.9 ± 0.9 °C. Moreover, the “Changes in Body Temperature after injection with yeast, 2 hr” value in data set [1] (2 hr after the gastrogavage) came out at 37.6 ± 0.9 °C. Also, in data set [1] (3 hr after the gastrogavage), the “Changes in Body Temperature after injection with yeast, 3 hr” value worked out at 37.8 ± 1.0 °C. Moreover, in data set [1] (4 hr after the gastrogavage), the “Changes in Body Temperature after injection with yeast, 4 hr” value came out at 38.3 ± 0.7 °C. In data set [2] (2 h after inflammation), the “Swelling Measurement, 2 h” value was determined as 2.40 ± 1.08 mm. The “Swelling Measurement, 4 h” value in data set [2] (4 h after inflammation) amounted to 4.40 ± 1.57 mm. In data set [2] (6 h after inflammation), the “Swelling Measurement, 6 h” value is on record as 5.30 ± 1.34 mm. Besides, the “Swelling Measurement, 24 h” value in data set [2] (24 h after inflammation) stood at 3.20 ± 0.92 mm. For the same compound, the “Swelling Measurement, 48 h” value in data set [2] (48 h after inflammation) was 5.01 ± 1.92 mm. In addition, in data set [2] (72 h after inflammation), the “Swelling Measurement, 72 h” value is reported as 5.80 ± 1.75 mm. Besides, in data set [3] (0.15 g/kg), the “No. of Tubercles” value came to 1 and the “Visual Score” value worked out at 1. Moreover, the Swelling in data set [3] (0.15 g/kg gastrogavage one week after adjuvant injection) is 0.0 ± 0.57 mm. Further, in data set [4], the “Dry Weight of the granuloma” value stood at 10.1 ± 1.6 mg/100 g and the Inhibitory rate % came to 17.89%. In data set [5] (0.5 hr), the “Degree of swelling of Hind Paw, 0.5 hr after injection” value was 0.08 ± 0.03 mL. Further, the “Degree of swelling of Hind Paw, 1 hr after injection” value in data set [5] (1 hr) was determined as 0.12 ± 0.03 mL. The “Degree of swelling of Hind Paw, 2 hr after injection” value in data set [5] (2 hr) turned out to be 0.03 ± 0.02 mL. Besides, the “Degree of swelling of Hind Paw, 3 hr after injection” value in data set [5] (3 hr) was 0.01 ± 0.01 mL. For the same compound, in data set [5] (4 hr), the “Degree of swelling of Hind Paw, 4 hr after injection” value amounted to 0.01 ± 0.0 mL. Besides, the “Analgesic Rate (%)” value in data set [6] is recorded as 63.31%. Besides, in data set [6] (30 minutes following acetic acid injection), the “Writhing Quantity” value is given as 24.4 ± 10.0. Besides, in data set [7], the “Evans blue (densitometry)” value is 0.231 ± 0.07.

Take `COc1cc2c(c(OC)c1OC)-c1ccc(OC)c(=O)cc1[C@@H](NC(C)=O)CC2` [colchicine]: the “smallest amount found to be fatal” value in data set [8] was 7 mg.
